Assay results: patent publication US11752155B2, “Treatment of autism spectrum disorders, obsessive-compulsive disorder and anxiety disorders” (Rugen Holdings (Cayman) Limited, priority 2016, dated 2023)
“And” between values parts separate entries of the source, which are not always exact repeats. Equal values may be shown once. Where a name gives a salt, the structure may show the parent alone. Read-outs that look alike come from different tables or passages of the source.

How the values were obtained:
[1] = molecular target: native rat brain NR2B receptors (Rattus norvegicus (Rat), UniProt P35439+Q00960); assay: NR2B radioligand binding assay in rat brain using [3H] (E)-N1-(2-methoxybenzyl)-cinnamidine; conditions: rat brain NR2B receptors
Sequence of native rat brain NR2B receptors (Q00960 27-1482, other chains not shown): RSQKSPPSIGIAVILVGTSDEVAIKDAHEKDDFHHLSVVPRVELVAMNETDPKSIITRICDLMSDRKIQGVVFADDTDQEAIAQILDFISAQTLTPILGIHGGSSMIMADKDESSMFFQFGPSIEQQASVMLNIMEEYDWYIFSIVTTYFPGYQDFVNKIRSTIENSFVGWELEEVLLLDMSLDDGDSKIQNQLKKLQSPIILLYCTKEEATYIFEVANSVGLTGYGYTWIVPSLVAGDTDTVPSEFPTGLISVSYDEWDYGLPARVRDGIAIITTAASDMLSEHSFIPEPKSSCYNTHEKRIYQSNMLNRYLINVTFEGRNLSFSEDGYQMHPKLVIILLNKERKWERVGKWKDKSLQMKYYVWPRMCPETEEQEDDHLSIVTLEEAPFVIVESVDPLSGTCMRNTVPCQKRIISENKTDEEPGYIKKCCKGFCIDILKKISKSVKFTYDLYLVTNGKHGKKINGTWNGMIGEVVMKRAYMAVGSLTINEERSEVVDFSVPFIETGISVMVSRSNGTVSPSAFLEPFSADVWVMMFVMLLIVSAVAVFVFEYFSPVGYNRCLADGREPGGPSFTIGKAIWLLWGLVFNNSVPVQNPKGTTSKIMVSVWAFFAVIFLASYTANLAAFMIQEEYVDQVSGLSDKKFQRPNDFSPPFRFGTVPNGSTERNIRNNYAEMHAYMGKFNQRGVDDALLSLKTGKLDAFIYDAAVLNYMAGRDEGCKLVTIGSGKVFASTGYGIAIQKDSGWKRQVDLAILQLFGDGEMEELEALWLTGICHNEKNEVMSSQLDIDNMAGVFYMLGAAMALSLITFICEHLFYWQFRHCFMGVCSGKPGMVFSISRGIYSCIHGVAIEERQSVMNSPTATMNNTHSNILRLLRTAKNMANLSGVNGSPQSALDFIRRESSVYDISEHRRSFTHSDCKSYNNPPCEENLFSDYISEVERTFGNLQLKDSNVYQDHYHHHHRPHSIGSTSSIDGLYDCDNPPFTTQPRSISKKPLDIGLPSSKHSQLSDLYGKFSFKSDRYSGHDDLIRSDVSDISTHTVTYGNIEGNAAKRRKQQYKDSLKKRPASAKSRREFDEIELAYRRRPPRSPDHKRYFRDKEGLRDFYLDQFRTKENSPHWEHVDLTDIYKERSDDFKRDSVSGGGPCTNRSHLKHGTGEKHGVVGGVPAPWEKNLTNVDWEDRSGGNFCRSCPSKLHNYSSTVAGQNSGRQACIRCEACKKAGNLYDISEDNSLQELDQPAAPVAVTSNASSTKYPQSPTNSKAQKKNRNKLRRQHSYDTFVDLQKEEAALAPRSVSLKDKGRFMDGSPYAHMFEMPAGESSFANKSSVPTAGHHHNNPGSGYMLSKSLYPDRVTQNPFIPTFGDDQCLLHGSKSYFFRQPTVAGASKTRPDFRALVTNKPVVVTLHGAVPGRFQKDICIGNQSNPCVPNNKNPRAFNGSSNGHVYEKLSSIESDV
Method: This example describes an NR2B receptor binding assay in rat brain using [^3H] […] The binding assay method was adapted from a previously described cellular human NR1a/NR2B cloned receptor assay (Kiss et al. Neurochem. Internatl. 2005, 46:453-464) to rat brain tissue. This assay serves as a selective measure of NR2B receptor binding activity in native rat brain receptors. Briefly, the brains of male Wistar rats were homogenized (Polytron) before centrifugation at 40,000×g for 15 minutes at 4° C. After 2 washes, the final pellet was homogenized and stored at −80° C. The protein concentration was determined by Bradford assay. [^3H] […] Non-specific binding was assessed in the presence of excess (10 μM) (E)-N1-(2-nethoxybenzyl)-cinnamidine.
Test compounds were solubilized at 10 mM in DMSO. Then the dilutions were performed with a constant solvent concentration (1% DMSO) in the assay. After incubation for 4.5 hours at room temperature, the assays were filtered on GF/3 filters pretreated with 0.3% (v/v) polyethylenimine (PEI) with a Packard system. The experiment was performed in duplicate (n=2).

[2] = molecular target: hERG channel (Homo sapiens (Human), UniProt Q12809); assay: hERG channel inhibition, whole cell patch clamp in HEK293 cells; type: cell-based; conditions: for IC50: Table 1.3B; for inhibition at 5 min, 10 µM: human, HEK293 cells stably expressing hERG channel, pH 7.35
Sequence of hERG channel (Q12809 whole entry): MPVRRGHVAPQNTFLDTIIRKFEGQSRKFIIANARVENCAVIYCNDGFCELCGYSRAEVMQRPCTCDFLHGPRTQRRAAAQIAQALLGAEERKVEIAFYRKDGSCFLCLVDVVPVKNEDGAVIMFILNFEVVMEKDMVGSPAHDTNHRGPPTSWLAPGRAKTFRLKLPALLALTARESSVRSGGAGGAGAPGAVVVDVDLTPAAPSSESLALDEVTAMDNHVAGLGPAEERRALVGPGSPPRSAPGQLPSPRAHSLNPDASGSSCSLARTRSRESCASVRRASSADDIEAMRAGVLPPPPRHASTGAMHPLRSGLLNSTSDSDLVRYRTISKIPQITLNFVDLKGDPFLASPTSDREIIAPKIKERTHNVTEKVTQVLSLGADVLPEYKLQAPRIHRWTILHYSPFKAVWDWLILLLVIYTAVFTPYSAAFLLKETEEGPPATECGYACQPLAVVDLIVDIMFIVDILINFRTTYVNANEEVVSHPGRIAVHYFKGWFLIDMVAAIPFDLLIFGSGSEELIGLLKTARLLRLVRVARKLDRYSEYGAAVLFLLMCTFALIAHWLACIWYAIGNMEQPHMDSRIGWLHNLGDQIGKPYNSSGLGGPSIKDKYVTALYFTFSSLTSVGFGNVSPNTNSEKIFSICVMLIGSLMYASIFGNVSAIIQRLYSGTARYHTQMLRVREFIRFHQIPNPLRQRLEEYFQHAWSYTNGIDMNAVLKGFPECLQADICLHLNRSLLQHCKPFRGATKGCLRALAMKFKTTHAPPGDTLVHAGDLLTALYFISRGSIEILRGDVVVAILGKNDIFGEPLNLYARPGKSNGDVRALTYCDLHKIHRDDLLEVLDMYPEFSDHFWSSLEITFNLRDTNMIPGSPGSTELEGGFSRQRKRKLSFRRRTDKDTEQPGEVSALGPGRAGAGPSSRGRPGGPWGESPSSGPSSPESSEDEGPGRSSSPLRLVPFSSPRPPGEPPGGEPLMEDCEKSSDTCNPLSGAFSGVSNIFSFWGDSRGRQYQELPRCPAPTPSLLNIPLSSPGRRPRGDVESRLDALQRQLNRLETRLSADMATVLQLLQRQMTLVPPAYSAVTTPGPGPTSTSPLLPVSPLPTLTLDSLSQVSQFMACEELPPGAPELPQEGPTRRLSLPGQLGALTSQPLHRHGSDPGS
Method: The assay was performed on hERG channel stably expressed in HEK293 cells. The cells were cultured at 37° C. in a humidified CO2 incubator in the growth medium consisting of DMEM, 10% fetal bovine serum and antibiotics. Prior to the assay, the cells were seeded onto a 12-mm PDL-coated glass coverslip and cultured in a 35-mm Petri dish. After 16 to 40 hours culture, the coverslip was transferred into the chamber of OctaFlow perfusion system (ALA Instrument) and under a constant flow of extracellular solution (140 mM NaCl, 4 mM KCl, 1 mM MgCl2, 2 mM CaCl2, 10 mM HEPES, 10 mM D-glucose, pH 7.35, osmolarity 290). Whole cell patch clamping was performed with a glass micropipette filled with intracellular solution (120 mM KCl, 1.75 mM MgCl2, 5.4 mM CaCl2, 10 mM HEPES, 10 mM EGTA, and 4 mM ATP-K2, pH 7.2, osmolarity 310). Giga-seal was maintained during the test. The voltage control and current measurement were carried out using Axon amplifier 700B, Digidata 1440A and CLAMPEX10 software (Molecular Devices). Whole-cell hERG currents were recorded following the Petroski protocol: the cell was held at −80 mV, and the voltage step jumped from −80 to 30 mV and stay for 2 seconds with a 20-millisecond prepulse at −40 mV. After depolarization, the voltage was decreased to −40 mV and stay for 2 seconds, and returned back to −80 mV. Test compound was applied by quartz capillary tubes tip (200 m inner diameter), and the flow rate was controlled at 2-3 mL/min with OctaFlow perfusion system. Different concentrations of the compound were applied to the cells for 5 minutes and the hERG current was measured three times before, during and after compound treatment. The data were analyzed using Clampfit 10 software (Molecular Devices) to generate IC50 values.

[3] = molecular target: CYP2D6 (Homo sapiens (Human), UniProt P10635); assay: CYP P450 enzyme inhibition in pooled human liver microsomes (dextromethorphan probe); type: in vitro ADME; conditions: for IC50: Table 1.4B; for inhibition at 10 min, 10 µM: human, pooled human liver microsomes, pH 7.4, probe dextromethorphan, 5 μM, read-out: CYP2D6 Inhibiton at 10 μM
Sequence of CYP2D6 (P10635 whole entry): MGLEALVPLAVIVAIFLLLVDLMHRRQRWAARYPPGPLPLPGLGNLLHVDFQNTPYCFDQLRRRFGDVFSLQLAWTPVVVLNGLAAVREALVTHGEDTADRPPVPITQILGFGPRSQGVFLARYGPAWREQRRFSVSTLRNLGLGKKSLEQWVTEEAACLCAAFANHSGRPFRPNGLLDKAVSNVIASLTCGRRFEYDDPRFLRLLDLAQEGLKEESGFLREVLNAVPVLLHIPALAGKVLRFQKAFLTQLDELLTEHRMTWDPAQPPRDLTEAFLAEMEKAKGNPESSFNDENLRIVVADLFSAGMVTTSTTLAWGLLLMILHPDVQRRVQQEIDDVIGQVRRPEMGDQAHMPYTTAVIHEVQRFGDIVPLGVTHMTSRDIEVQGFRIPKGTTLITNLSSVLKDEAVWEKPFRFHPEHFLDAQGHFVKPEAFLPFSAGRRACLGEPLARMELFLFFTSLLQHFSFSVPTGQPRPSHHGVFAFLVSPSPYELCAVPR
Method: Test compound concentration-dependent response studies were performed in triplicate.

[4] = molecular target: human NR1/NR2B (Homo sapiens (Human), UniProt Q05586+Q13224); assay: NR2B antagonist activity: calcium influx (Fluo-4) assay in HEK293 cells; type: cell-based; conditions: read-out: NR2B IC50
Sequence of human NR1/NR2B (Q13224 27-1484, other chains not shown): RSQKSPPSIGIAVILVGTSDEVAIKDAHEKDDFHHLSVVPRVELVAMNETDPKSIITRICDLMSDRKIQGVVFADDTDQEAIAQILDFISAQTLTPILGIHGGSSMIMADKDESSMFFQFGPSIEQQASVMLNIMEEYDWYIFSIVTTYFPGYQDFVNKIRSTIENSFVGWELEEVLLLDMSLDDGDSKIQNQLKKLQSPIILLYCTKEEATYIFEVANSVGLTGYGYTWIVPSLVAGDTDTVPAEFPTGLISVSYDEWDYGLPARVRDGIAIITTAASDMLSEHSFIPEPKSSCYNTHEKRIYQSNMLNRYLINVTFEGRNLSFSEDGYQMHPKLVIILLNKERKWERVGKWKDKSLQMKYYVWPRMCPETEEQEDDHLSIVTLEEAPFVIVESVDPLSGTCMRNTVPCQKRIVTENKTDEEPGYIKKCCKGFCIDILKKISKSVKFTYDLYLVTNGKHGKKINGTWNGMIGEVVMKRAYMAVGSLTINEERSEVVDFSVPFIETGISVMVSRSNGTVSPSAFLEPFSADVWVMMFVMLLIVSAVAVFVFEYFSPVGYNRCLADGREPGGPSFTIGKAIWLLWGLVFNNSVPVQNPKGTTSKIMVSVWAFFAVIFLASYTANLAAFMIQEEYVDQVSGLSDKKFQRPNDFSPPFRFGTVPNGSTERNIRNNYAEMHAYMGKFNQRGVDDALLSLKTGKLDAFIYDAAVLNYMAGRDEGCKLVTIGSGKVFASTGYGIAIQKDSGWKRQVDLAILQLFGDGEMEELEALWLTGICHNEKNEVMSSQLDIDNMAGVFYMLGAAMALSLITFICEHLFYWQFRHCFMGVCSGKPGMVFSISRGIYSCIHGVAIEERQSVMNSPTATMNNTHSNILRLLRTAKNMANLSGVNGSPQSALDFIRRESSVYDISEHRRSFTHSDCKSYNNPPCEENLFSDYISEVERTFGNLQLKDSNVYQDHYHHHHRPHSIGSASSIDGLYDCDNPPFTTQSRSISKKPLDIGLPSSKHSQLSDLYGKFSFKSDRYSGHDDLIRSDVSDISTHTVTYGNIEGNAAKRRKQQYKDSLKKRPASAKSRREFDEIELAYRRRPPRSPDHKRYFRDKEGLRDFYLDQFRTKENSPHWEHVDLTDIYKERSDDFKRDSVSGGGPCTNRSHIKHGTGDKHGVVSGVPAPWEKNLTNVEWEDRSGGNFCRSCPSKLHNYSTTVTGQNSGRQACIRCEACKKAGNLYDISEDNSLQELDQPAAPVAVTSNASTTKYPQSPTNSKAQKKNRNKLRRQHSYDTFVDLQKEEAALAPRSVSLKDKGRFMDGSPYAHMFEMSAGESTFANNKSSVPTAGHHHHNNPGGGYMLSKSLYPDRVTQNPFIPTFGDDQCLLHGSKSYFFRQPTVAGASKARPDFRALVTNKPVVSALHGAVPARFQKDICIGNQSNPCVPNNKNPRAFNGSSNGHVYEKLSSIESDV
Method: Activation of the NR2A or NR2B subtype of NMDA receptor with glutamate as an agonist and glycine co-agonist on these cells results in calcium influx, which can be monitored with fluorescent indicator Fluo-4.
For experiments, the cells were seeded onto poly-D-lysine-coated 96-well black plates with clear bottom (Corning) at a density of ˜50,000 cells/well. After overnight culture, the growth medium was removed from the wells and the cells were incubated at 37° C. for 60 minutes in Hanks buffer containing 4 μM fluo-4-AM (Invitrogen) and 0.1% bovine serum albumin (BSA). After dye-loading, the cells were washed three times with Hanks buffer and incubated for 10 minutes at room temperature with various concentrations of test compounds prepared in Hanks buffer with 0.1% BSA. The cell plates were placed onto an FDSS Cell fluorescence reader (Hamamatsu). After 20 seconds of reading background fluorescence, agonist glutamate at final 100 µM and co-agonist glycine at final 50 μM were added to the cells to activate the receptor, and the resulting fluorescence changes were recorded and quantified. Based on the changes in fluorescence intensity, the pharmacological effect of test compounds was analyzed and the IC50 values derived from a non-linear least squares fitting of the concentration-dependent response to a standard logistic equation using Prism (Graphpad Software, Inc.): Amplitude=Max Amplitude/(1+(IC50/[antagonist])^n).

[5] = system: Sapap3 knockout mice; assay: Grooming Test in Sapap3 knockout mice; type: in vivo, mouse
Method: (§1) Animals. The breeding conditions and genotyping methods for Sapap3 and Shank3 complete knockout mice were the same as described in Welch et al. (Nature 2007, 448(7156):894-900) and in Wang et al. (Nat. Commun. 2016, 7:11459), respectively. Homozygous knockout mice and littermate wild type mice of both genders were used at 4 to 8 weeks of age.
(§2) Compound formulation. The test compounds were dissolved in a small volume of dimethyl sulfoxide (DMSO) and diluted in an aqueous solution of 2-hydroxypropyl-beta-cyclodextrin (HP-β-CD) and administered IP. Dosing volume was 10 mL/kg. At 20 minutes after dosing, the mice were subjected to the behavioral test as described below.
(§3) Testing room and apparatus. The test room was maintained under the same conditions as the colony rooms, except the mice were housed in conventional shoe-box cages with food, water, and nesting materials. Animals were housed in the test room 48-72 hours prior to testing, in order to permit the mice to fully acclimate to the test room and conventional housing cages before testing. Tests were conducted in white polyvinyl-fluoride hard-sided foam test arenas (20×20×12 cm). The arenas were indirectly illuminated by dimmable LED light bars placed level with the arena floor and 30 cm away from the external wall of the test arena. This permitted the internal area of the arena to be evenly illuminated at approximately 40 lux. The illumination levels where the mice were housed before testing were about 80-100 lux.
(§4) Testing procedure. Mice were carefully placed into the test arenas 20 minutes after compound administration. Animals were given free exploration of the arena for 10 minutes, after which they were gently sprayed with 4 quick pumps of a water mist (total water volume approximated 1.5-1.7 mL). Mice were then allowed an additional 10 minutes to self-groom and engage in other behaviors before being removed from the arena. All tests were videotaped using cameras mounted above the testing arena and were saved to digital media format using Noldus Media Player software (Noldus Information Technologies, Leesburg, Va.). The mice were only tested once in the acute studies and were repeatedly tested in the sustained effect studies.
(§5) Quantitation of grooming bouts. Analyses of the video recordings were conducted with TopScan behavioral recognition software (Cleversys Inc, Reston, Va.). Configurations were made which scored time spent in grooming. […] These settings permitted automated scoring of grooming by TopScan that corresponded well to manual-scoring of these behaviors by a trained blinded observer using Noldus Observer XT9 (Noldus Information Technologies), with an average corrected kappa of 0.925 (range 0.807-0.983).
(§6) Statistical analyses. Data are presented as means and standard error of the means (SEMs). Analyses were conducted using SPSS 23 (IBM SPSS Statistics, Chicago, Ill.). Time spent in grooming behavior (seconds) over the 10-minute pre- and post-spray time blocks were analyzed with repeated measures analyses of variance (RMANOVA). The pre- and post-spray times were used for the within subject effects and the genotype and compound treatment condition were used as the between subject effects. In sustained effect studies, days were also used for a within subject effect. Some analyses of total groom time were performed in Prism 7.01 (GraphPad Software, La Jolla, Calif.), with one-way ANOVAs to compare genotypes on Day 1 or with RMANOVAs to compare treatment groups within the same genotype across days. Treatments with compounds were compared independently with the vehicle. All post-hoc comparisons were performed with Bonferroni corrections for multiple comparisons to avoid a Type I error. In all cases, a p<0.05 was considered significant.
Next, the effect of two subunit-selective NR2B antagonists administered as a single IP dose and assessed 20 minutes postdose was studied in the Sapap3 knockout mice (n=6-10 mice per treatment group). […]

[6] = system: wild type littermate mice; assay: Grooming Test in wild type littermates of Sapap3 and Shank3 complete knockout mice; type: in vivo, mouse
Method: as §1, §2, §3, §4, §5, §6
The wild type littermates of the Sapap3 knockout and Shank3 complete knockout mice were retested after Day 1 compound administration to determine whether the sustained effects were unique to the knockout mice. […]

[7] = system: wild type mice (male NMRI); assay: Marble Burying Test in wild type mice; type: in vivo, mouse; conditions: for change in vivo at 0.1 mg/kg / change in vivo at 0.3 mg/kg / change in vivo at 3 mg/kg / change in vivo at 10 mg/kg / change in vivo at 1 mg/kg: Mus musculus, read-out: Percent Change in marbles buried relative to vehicle
Method: Animals. Male NMRI mice (20-30 g body weight) were obtained from Janvier Labs (Le Genest-Saint Isle, France) and allowed to acclimate to the animal facility for at least 5 days. Twelve mice were studied per treatment group.
Compound formulation. The test compounds were prepared in a vehicle of 0.5% DMSO and 4% HP-β-CD, and administered orally (PO) or IP. The test compounds or vehicle were administered 20 minutes before the behavioral test described below. Clobazam (8 mg/kg IP), administered 30 minutes before the test, was used as the positive reference compound.
Clobazam was dispersed in 0.2% hydroxypropylmethylcellulose (HPMC) in physiological saline. Dosing volume was 10 mL/kg.
Testing procedure. The Marble Burying Test was conducted as previously described by Broekkamp et al. (Eur. J. Pharmacol. 1986, 126:223-229). Mice exposed to small novel objects (marbles) will bury them in the sawdust floor covering. Anxiolytics decrease the number of marbles buried at non-sedating doses. Mice were individually placed in transparent plastic cages (33×21×18 cm) with 5 cm of sawdust on the floor and 25 marbles grouped in the center of the cage. The cage was covered with an inverted plastic cage. Each test cage, together with the marbles, was impregnated with mouse odor before-hand by leaving 10 mice in the cage for 15 minutes. These mice then played no further role in the experiment. The number of marbles covered by sawdust (⅔ or more) was counted at the end of the 30-minute test. The test was performed blind (compounds versus vehicle).
Statistical analyses. Data were analyzed by comparing test compound-treated groups with the vehicle control group using the Kruskal-Wallis test followed by post-hoc Mann-Whitney U tests. Data comparing the reference compound with the vehicle were analyzed using the Mann-Whitney U test. A p value<0.05 was considered significant.

[8] = mean of replicates, read-out: Arithmetic Mean Ki

| SMILES | Ki [1, 8] | IC50 [2] | IC50 [3] | IC50 ([4]; Table 1.1B) | IC50 ([4]; Table 1.3B) | IC50 ([4]; Table 1.4B) | inhibition at 5 min, 10 µM [2] | inhibition at 10 min, 10 µM [3] | change in vivo at 0.3 mg/kg ([7]; ip) | change in vivo at 3 mg/kg ([7]; ip) | also measured |
| --- | --- | --- | --- | --- | --- | --- | --- | --- | --- | --- | --- |
| Cc1ccc(COC(=O)N2CC[C@H](CNc3cccnn3)C(F)(F)C2)cc1 [E1-24.2^B′, (R)-4-methylbenzyl 3,3-difluoro-4-((pyridazin-3-ylamino)methyl)piperidine-1-carboxylate] | 0.00285 µM | 25 µM | 15 µM |  |  |  |  |  |  |  | Ki ([1]; individual replicate, read-out: Ki, result from each assay): 0.0021 µM and 0.0036 µM |
| Cc1ccc(COC(=O)N2CC[C@H](CNc3cnccn3)C(F)(F)C2)cc1 [E1-21.2^B′] |  |  |  | 0.0139 µM | 0.0139 µM | 0.0139 µM | 27% | 97% |  |  |  |
| O=C(OCc1ccc(C(F)F)cc1)N1CC[C@H](CNc2ncccn2)C(F)(F)C1 [E1-22.6^B′, (R)-4-(difluoromethyl)benzyl 3,3-difluoro-4-((pyrimidin-2-ylamino)methyl)piperidine-1-carboxylate mesylate] |  | 7.3 µM | 41 µM |  |  |  |  |  | -95% | -98% | significantly reduced grooming through Day ([5]; first dose 3 mg/kg IP on Day 1): 15 days; acute effect on excessive self-grooming ([5]; single IP dose, 20 min postdose, Day 1): significantly reduced grooming; significantly reduced grooming through Day ([5]; single dose 1 mg/kg IP on Day 1): 15 days; effect on grooming on Day 3 ([6]; 1 mg/kg IP on Day 1, wild type littermates): did not show an effect; effect on grooming on Day 1 ([6]; 1 mg/kg IP, wild type littermates): significant reduction in grooming; effect on grooming on Day 5 ([6]; 3 mg/kg IP on Day 1, wild type littermates): significantly increased grooming; effect on grooming on Day 3 ([6]; 3 mg/kg IP on Day 1, wild type littermates, mesylate): significantly reduced grooming; acute effect on grooming on Day 1 ([6]; wild type littermates of Sapap3 knockout mice, dose-dependent): significantly reduced grooming; change in vivo at 0.1 mg/kg ([7]; ip): -30%; change in vivo at 10 mg/kg ([7]; ip): -100% |
| Cc1ccc(COC(=O)N2CC[C@H](CNc3ccncc3)C(F)(F)C2)cc1 [E1-38.2^B′, (R)-4-methylbenzyl 3,3-difluoro-4-((pyridin-4-ylamino)methyl)piperidine-1-carboxylate methanesulfonate] |  | 2.9 µM | 1.49 µM |  |  |  |  |  | 4% | -76% | change in vivo at 1 mg/kg ([7]; ip): -18% |
| Cc1ccc(COC(=O)N2CC[C@H](CNc3ccc(C)cn3)C(F)(F)C2)cc1 [E1-23.26^B′, (R)-4-methylbenzyl 3,3-difluoro-4-(((5-methylpyridin-2-yl)amino)methyl)piperidine-1-carboxylate] | 0.0065 µM |  | 9.7 µM |  |  |  |  |  |  |  |  |
| CCc1ccc(COC(=O)N2CC[C@H](CNc3ncccn3)C(F)(F)C2)cc1 [E1-22.5^B′, (R)-4-ethylbenzyl 3,3-difluoro-4-((pyrimidin-2-ylamino)methyl)piperidine-1-carboxylate methanesulfonate] |  | 9.2 µM | 29 µM |  |  |  |  |  | 8% | -100% | change in vivo at 0.1 mg/kg ([7]; ip): -9%; change in vivo at 10 mg/kg ([7]; ip): -100%; change in vivo at 0.3 mg/kg ([7]; po): -11%; change in vivo at 1 mg/kg ([7]; po): -15%; change in vivo at 3 mg/kg ([7]; po): -76%; efficacy in the Marble Burying Test ([7]; lowest test concentration of 1 mg/kg, IP): fully efficacious |
| O=C(OCc1ccc(F)cc1)N1CC[C@H](CNc2nccn3cnnc23)C(F)(F)C1 [E1-1.4^B′] |  |  |  | 0.0205 µM | 0.0205 µM | 0.0205 µM | 11% | 19% |  |  |  |
| O=C(OCc1ccc(Cl)cc1)N1CC[C@H](CNc2nccn3cnnc23)C(F)(F)C1 [E1-1.3^B′] | 0.00867 µM |  |  | 0.0148 µM | 0.0148 µM | 0.0148 µM | 19% | 37% |  |  |  |
